According to patent publication US20230313181A1, “HISTIDINE-LYSINE POLYMERS AND METHODS FOR DELIVERING MRNA USING THE SAME” (UNIVERSITY OF MARYLAND, BALTIMORE, priority 2019, published 2023):
Bridges are numbered along the chain shown (N, C = ends). Roman numbers before positions name the chains, in order. Where no end group is shown, it is not given here.

Columns and labels:
[1] = Particle size, polydispersity index (PDI) and zeta potential of polyplexes (Zetasizer); assay type: physicochemical
Procedure: Particle size, polydispersity index (PDI), and zeta potential. The size, PDI, and zeta potential were determined with the Zetasizer (Malvern, Westborough, Mass.) and analyzed with software provided by the instrument manufacturer (Zetasizer software, version 6.2). Using dynamic light scattering at a 90° angle, the size of the particles were reported as the Z-average diameter from the intensity-weighted size distribution. Prior to the measurements, the samples were equilibrated to 25° C. for 2 min. Each measurement had at least ten sub-runs under the automatic mode of the software. The particle size, PDI, and zeta potential data point represent the mean±SD of three measurements. After mixing HK peptides (4 μg) and mRNA (1 μg) in 100 μl of defined media (Opti-MEM, water, or DMEM/8% FBS) for 30 min, 100 μl of additional defined media was added to the polyplex solution (total volume 200 μl) to measure the size and PDI. To determine the zeta potential, 800 μl more of the media was added (total volume 1000 μl), mixed gently, and then added to the disposable zeta cell.
Because different stabilities were observed between the H3K4b and H3K(+H)4b polyplexes, whether the sizes of these polyplexes varied based on the media in which they were prepared was investigated. […] H3K(+H)4b and H3K4b peptides (4 μg) in complex with mRNA (1 μg) were mixed with either Opti-MEM, water, or DMEM/8% FBS […]. After 1 h, the size, PDI, and zeta potential were measured.

[2] = Cell viability assay (trypan blue exclusion); assay type: cell-based; settings: human, MDA-MB-231 cells, HK polymer 4 μg or polyplex (4 μg HK; 1 μg mRNA), then 19 h DMEM/10% FBS
Procedure: Cell Viability Assay. MDA-MB-231 cells were seeded at 5.0×10^4/well in a 24-tissue culture plate and incubated overnight in DMEM supplemented with 10% FBS serum. The media was then changed to Opti-MEM and the cells were treated with either the HK polymer (4 μg) or the HK polyplex (4 μg HK; 1 μg mRNA) for 5 h. After the media was changed to DMEM/10% FBS for 19 h, the cell viability was measured using the trypan blue cell exclusion assay (Trypan Blue solution, 0.4%, Sigma-Aldrich, St. Louis, MO).
After the medium was changed to Opti-MEM in cell cultures of the MDA-MB-231 cells used in the experiment described above, either the HK polymer (4 μg) or the HK polyplex (4 μg HK; 1 μg mRNA) was added dropwise to the cells and incubated for 5 h. The media was then changed to DMEM/10% FBS for 19 h and cell viability was determined using the trypan cell exclusion assay.

[3] = tested on: mRNA; experiment: Heparin displacement assays (gel electrophoresis and Sybr Gold dye intercalation); assay type: physicochemical; settings: HK:mRNA 4:1 wt/wt
Procedure: FIG. 4. Heparin Displacement Assays. After HK polyplexes were formed (wt:wt; HK:mRNA; 4 μg:1 μg), different concentrations of heparin […] were incubated with these for 30 min. A. Gel Retardation. The HK polyplexes were loaded on the agarose gel (1%), and electrophoresis was carried out and stained with Sybr Gold. B. Fluorescent dye intercalation. After the HK polyplexes were formed and incubated with several concentrations of heparin, the Sybr Gold nucleic acid dye was incubated with the HK polyplexes for 5 mins. Fluorescence was then measured by a microplate fluorimeter (λex=497 nm, λem=520 nm) (SynergyMx, BioTek). *, P<0.05; ***, P<0.001; H3K4b or H2K vs. H3K(+H)4b.
Heparin Displacement Assays. Heparin displacement assays of HK polyplexes were done with the dye intercalation assay and with gel electrophoresis. A fluorescent assay assessed polyplexes of HK polymer and mRNA (4:1 wt/wt ratio; polymer:mRNA) formed in RNAse/DNAase free water (Corning, Manassas, VA). HK polyplexes were prepared as described previously, followed by the addition of diluted Syber Gold. For detection, working dilutions of the polyplexes (1/5 of volume), water (3/5) and Sybr Gold dye (1/5, 0.2×) were incubated for 5 minutes, and fluorescence was measured by a fluorimeter (Ex=497 nm, Em=520 nm) (SynergyMx, BioTek, Winooski, VT). The control sample was prepared with the same amount of mRNA, water, and Sybr Gold dye. For the heparin displacement, instead of water, heparin salt (Sigma-Aldrich, St. Louis, MO) solutions at different concentrations (0.5, 1, 1.5, 2, 3 μg/μl) were used, and the HK polyplexes were incubated at 37° C. for 30 min before addition of Sybr Gold.
Displacement of mRNA from HK polyplexes with heparin was also done with gel electrophoresis. After HK polyplexes were formed, different concentrations of heparin (0.5, 1.0, 1.5, 2.0, 3.0 μg/μl; volume 20 μl) were incubated with these at 37° C. for 30 min. The polyplexes were then loaded on the agarose gel (1%; 10× BlueJuice Gel loading buffer), and electrophoresis was carried out and stained with SG as described above. […]

[4] = polyplex HK 4 μg:mRNA 1 μg in DMEM/8% FBS
[5] = polyplex HK 4 μg:mRNA 1 μg in Opti-MEM
[6] = polyplex HK 4 μg:mRNA 1 μg in Water

I: KHHHKHHHKHHHHKHHHKKKK-NH2 / II: KHHHKHHHKHHHHKHHHK / III: KHHHKHHHKHHHHKHHHK / IV: KHHHKHHHKHHHHKHHHK (amide I:19-IV:C, I:20-III:C, I:21-II:C) [H3K(+H)4b]
PDI [1, 4]: 0.307 | Size [1, 4]: 289 ± 38.2 nm | Zeta Potential [1, 4]: −12.7 ± 1.04 mV | PDI [1, 5]: 0.362 | Size [1, 5]: 1004 ± 61.1 nm | Zeta Potential [1, 5]: 2.92 ± 1.83 mV | PDI [1, 6]: 0.212 | Size [1, 6]: 234.9 ± 2.7 nm | Zeta Potential [1, 6]: 20.77 ± 1.12 mV | viability at 5 h [2]: 96.3% | binding/release of mRNA and polyplex stability on exposure to heparin (in words) [3]: binds more tightly to the mRNA
